Earlier results in patent US20150283148A1, “ARRANGEMENT OF SPECIFIC ANTIDOTES WITH ALLOPATHIC MEDICINAL PREPARATIONS IN GENERAL SECONDARY PACKAGE” (priority 2014, published 2015).

Settings: predicted by algorithm

NS(=O)(=O)Cc1noc2ccccc12 [Zonisamide]
predicted latent side effect: suicidal thoughts
